The first experiment concerns the target LRRK2 (Homo sapiens (Human), UniProt Q5S007, G2019S). The experiment in a line: In Vitro LRRK2 LabChip Assay. The format is biochemical. Conditions: Table 4. Here is the method:
In Vitro LRRK2 LabChip Assay
This assay was used to determine a compound's potency in inhibiting activity of LRRK2 by determining, Kiapp, IC50, or percent inhibition values. In a polypropylene plate, LRRK2, fluorescently-labeled peptide substrate, ATP and test compound were incubated together. Using a LabChip 3000 (Caliper Life Sciences), after the reaction the substrate was separated by capillary electrophoresis into two populations: phosphorylated and unphosphorylated. The relative amounts of each were quantitated by fluorescence intensity. LRRK2 Ki was determined according to the equation: Y=V0*(1−((x+Ki*(1+S/Km)+Et)/(2*Et)−(((x+Ki*(1+S/Km)+Et)^2−(4*Et*x))^0.5)/(2*Et))). Ki values in Table 4 and elsewhere herein are shown in μM.
Assay conditions and materials used were as follows:
Compound Plate Preparation:
For serial dilutions, 34.6 μl DMSO was added to columns 3-24. For the assay controls, 37.5 μl DMSO was added to columns 1 and 2 of rows A and P. a,d and 50 μl 25 μM G-028831 (Staurosporine) was added to columns 1 and 2, row B. For the samples: to start at 100 μM, 37.5 μl DMSO was to columns 1 and 2, then 12.5 μl 10 mM compound; to start at 10 μM, 78 μl DMSO was added to columns 1 & 2, then 2 μl 10 mM compound; and to start at 1 μM, 25 μM compound (2 μl 10 mM cmpd+798 μl DMSO) was added to empty columns 1 and 2. A Precision instrument was used to perform 1:3.16 serial dilutions (“PLK_BM_serial_halflog”).
ATP was diluted to 282.1 μM in Complete Kinase Buffer (final concentration was 130 μM).
Total and Blank Preparation:
In Complete Reaction Buffer, substrate was diluted to 4 μM. Equal volumes of Complete Reaction Buffer and 4 μM substrate were combined to obtain the blank. Equal volumes of Complete Reaction Buffer and 4 μM substrate were combined and to the combined solution was added 2× final LRRK2 concentration.
To a 50 μl polypropylene plate, 5 μl/well buffer/substrate was added by hand to Blank wells. A Biomek FX was used to start the kinase reaction (“PLK SAR 23 ATP”). The following were added to the appropriate wells:
5 μl/well compound/ATP in Assay Plate;
5 μl/well kinase/substrate in Assay Plate;
The plate was incubated for 2 hours in the dark. Biomek FX was used to stop the kinase reaction (“PLK Stop”), and 10 μl/well Stop solution was added to the Assay Plate. Results were read on the LabChip 3000.
The LabChip 3000 was run using the job “LRRK2IC50” with the following job settings: […]
LRRK2, sequence (Q5S007 970-2527 G2019S limits assumed): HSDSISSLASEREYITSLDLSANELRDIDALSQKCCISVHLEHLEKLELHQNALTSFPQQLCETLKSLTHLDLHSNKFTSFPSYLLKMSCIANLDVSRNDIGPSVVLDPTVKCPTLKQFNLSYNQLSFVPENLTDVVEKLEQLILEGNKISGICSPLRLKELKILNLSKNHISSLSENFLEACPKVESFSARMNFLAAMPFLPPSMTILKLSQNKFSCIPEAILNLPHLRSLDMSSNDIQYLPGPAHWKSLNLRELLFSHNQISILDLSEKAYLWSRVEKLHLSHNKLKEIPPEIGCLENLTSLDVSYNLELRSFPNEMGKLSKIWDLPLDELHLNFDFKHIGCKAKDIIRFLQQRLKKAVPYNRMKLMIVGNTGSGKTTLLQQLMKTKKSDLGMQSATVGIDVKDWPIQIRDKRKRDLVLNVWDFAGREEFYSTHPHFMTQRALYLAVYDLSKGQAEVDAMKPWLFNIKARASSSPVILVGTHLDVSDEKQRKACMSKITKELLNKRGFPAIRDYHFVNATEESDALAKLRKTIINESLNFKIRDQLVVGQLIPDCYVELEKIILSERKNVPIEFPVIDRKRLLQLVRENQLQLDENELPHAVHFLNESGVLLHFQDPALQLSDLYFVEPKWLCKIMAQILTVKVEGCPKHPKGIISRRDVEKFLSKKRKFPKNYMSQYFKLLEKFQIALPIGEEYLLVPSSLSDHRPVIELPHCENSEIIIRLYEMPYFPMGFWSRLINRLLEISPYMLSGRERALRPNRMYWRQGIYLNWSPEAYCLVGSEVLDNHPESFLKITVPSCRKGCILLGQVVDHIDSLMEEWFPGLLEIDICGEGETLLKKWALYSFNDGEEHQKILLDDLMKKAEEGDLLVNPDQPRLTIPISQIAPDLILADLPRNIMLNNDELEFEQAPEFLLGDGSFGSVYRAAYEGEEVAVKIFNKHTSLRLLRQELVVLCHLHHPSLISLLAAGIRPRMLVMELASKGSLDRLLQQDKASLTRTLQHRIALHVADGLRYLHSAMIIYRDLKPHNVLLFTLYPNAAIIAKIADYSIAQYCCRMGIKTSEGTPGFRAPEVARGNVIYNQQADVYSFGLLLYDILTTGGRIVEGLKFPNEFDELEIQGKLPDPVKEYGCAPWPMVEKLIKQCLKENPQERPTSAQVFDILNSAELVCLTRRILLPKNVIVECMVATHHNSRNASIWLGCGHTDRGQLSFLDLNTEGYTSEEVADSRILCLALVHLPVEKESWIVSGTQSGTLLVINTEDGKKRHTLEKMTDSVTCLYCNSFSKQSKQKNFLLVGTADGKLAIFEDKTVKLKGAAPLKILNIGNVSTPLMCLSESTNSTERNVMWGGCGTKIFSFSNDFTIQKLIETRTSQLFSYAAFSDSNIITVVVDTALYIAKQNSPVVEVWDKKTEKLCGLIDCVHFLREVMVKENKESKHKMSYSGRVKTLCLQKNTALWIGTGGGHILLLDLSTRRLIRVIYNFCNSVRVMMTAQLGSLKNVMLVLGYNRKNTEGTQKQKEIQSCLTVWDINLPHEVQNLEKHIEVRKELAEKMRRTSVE
As for `CNc1nc(Nc2ccc(C(=O)N3CCC(OC)CC3)cc2OC)ncc1Br` [Example 76, [4-(5-Bromo-4-methylamino-pyrimidin-2-ylamino)-3-methoxy-phenyl]-(4-methoxy-piperidin-1-yl)-methanone], the Ki (as a rule, the dissociation constant of the complex between target and ligand, obtained from inhibition or displacement) was found to be 2.4 nM.

Turning to `CNc1nc(Nc2cc(OC)c(C(=O)N3CCC(F)(F)CC3)cc2Cl)ncc1Cl` [Example 146, [5-Chloro-4-(5-chloro-4-methylamino-pyrimidin-2-ylamino)-2-methoxy-phenyl]-(4,4-difluoro-piperidin-1-yl)-methanone], the affinity corresponds to a Ki of 7.8 nM.

In turn, `CNc1nc(Nc2ccc(C(=O)N3CCC(C(C)(C)O)CC3)cc2OC)ncc1Br` [Example 71, [4-(5-Bromo-4-methylamino-pyrimidin-2-ylamino)-3-methoxy-phenyl]-[4-(l-hydroxy-1-methyl-ethyl)-piperidin-1-yl]-methanone] came in with a Ki of 2.4 nM.

Regarding `CNc1nc(Nc2ccc(C(=O)N3CC4(COC4)C3)cc2OC2CCCC2)ncc1Cl` [Example 188, [4-(5-Chloro-4-methylamino-pyrimidin-2-ylamino)-3-cyclopentyloxy-phenyl]-(2-oxa-6-aza-spiro[3.3]hept-6-yl)-methanone], the inhibition constant (Ki) came to 6.3 nM.

Turning to `COCCNc1nc(Nc2ccc(C(=O)N3CCOCC3)cc2OC(C)C)ncc1Br` [Example 186, {4-[5-Bromo-4-(2-methoxy-ethylamino)-pyrimidin-2-ylamino]-3-isopropoxy-phenyl}-morpholin-4-yl-methanone], the inhibition constant Ki is 13.5 nM.

Consider `CNc1nc(Nc2ccc(C(=O)N3CCOCC3)cc2OC)ncc1C(C)=O` [Example 183, l-{2-[2-Methoxy-4-(morpholine-4-carbonyl)-phenylamino]-4-methylamino-pyrimidin-5-yl}-ethanone], for which the affinity, expressed as Ki, was 68.2 nM.

Consider `CNc1nc(Nc2cc(OC)c(C(=O)N3CCC(O)CC3)cc2Cl)ncc1Cl` [Example 161, [5-Chloro-4-(5-chloro-4-methylamino-pyrimidin-2-ylamino)-2-methoxy-phenyl]-(4-hydroxy-piperidin-1-yl)-methanone], for which the Ki was found to be 3.6 nM.

Take `CNc1nc(Nc2ccc(C(=O)NC3CC(F)(F)C3)cc2OC)ncc1C#N` [Example 194, 4-(5-Cyano-4-methylamino-pyrimidin-2-ylamino)-N-(3,3-difluoro-cyclobutyl)-3-methoxy-benzamide]: the affinity, expressed as Ki, was 6.5 nM.

The compound `CNc1nc(Nc2cc(OC)c(C(=O)N(C)C)cc2Cl)ncc1Cl` [Example 140, 5-Chloro-4-(5-chloro-4-methylamino-pyrimidin-2-ylamino)-2-methoxy-N,N-dimethyl-benzamide] yielded a Ki of 11.8 nM.

`CNc1nc(Nc2cc(F)c(C(=O)N3CCC(OC)C3)cc2OC)ncc1C(F)(F)F` (stereo not drawn) [Example 247, (2-fluoro-5-methoxy-4-(4-(methylamino)-5-(trifluoromethyl)pyrimidin-2-ylamino)phenyl)(3-methoxypyrrolidin-1-yl)methanone] gave an inhibitory constant (Ki) of 2.7 nM.

`CNc1nc(Nc2ccc(C(=O)N3CCN4CCCCC4C3)cc2OC)ncc1Cl` (stereo not drawn) [Example 8, [4-(5-Chloro-4-methylamino-pyrimidin-2-ylamino)-3-methoxy-phenyl]-(octahydro-pyrido[1,2-a]pyrazin-2-yl)-methanone] showed an inhibition constant (Ki) of 3.5 nM.

The compound `CCN(C(=O)c1ccc(Nc2ncc(C#N)c(NC)n2)c(OC)c1)C(C)C` [Example 207, 4-(5-Cyano-4-methylamino-pyrimidin-2-ylamino)-N-ethyl-N-isopropyl-3-methoxy-benzamide] came in with an inhibition constant Ki of 5.4 nM.

`CNc1nc(Nc2cc(OC)c(C(=O)N(C)CCO)cc2Cl)ncc1Cl` [Example 163, 5-Chloro-4-(5-chloro-4-methylamino-pyrimidin-2-ylamino)-N-(2-hydroxy-ethyl)-2-methoxy-N-methyl-benzamide] came in with a Ki of 7.8 nM.

`CCN(CC)C(=O)c1ccc(Nc2ncc(C#N)c(NC)n2)c(OC)c1` [Example 199, 4-(5-Cyano-4-methylamino-pyrimidin-2-ylamino)-N,N-diethyl-3-methoxy-benzamide] yielded a Ki of 6.8 nM. This Ki and that of the compound before are within 1.5-fold of each other.

`CNc1nc(Nc2cc(F)c(C(=O)N3CCOCC3)cc2OC)ncc1C(F)(F)F` [Example 239, [2-Fluoro-5-methoxy-4-(4-methylamino-5-trifluoromethyl-pyrimidin-2-ylamino)-phenyl]-moipholin-4-yl-methanone] displayed a Ki of 2.9 nM.

For the compound `CCNc1nc(Nc2ccc(C(=O)N3CCOCC3)cc2OC(F)(F)F)ncc1C(F)(F)F` [Example 234, (4-(4-(ethylamino)-5-(trifluoromethyl)pyrimidin-2-ylamino)-3-(trifluoromethoxy)phenyl)(morpholino) methanone], affinity was put at a Ki of 3.2 nM.

`CNc1nc(Nc2ccc(C(=O)N3CCOCC3)cc2C)ncc1Cl` [Example 232, (4-(5-chloro-4-(methylamino)pyrimidin-2-ylamino)-3-methylphenyl) (morpholino) methanone]: the affinity corresponds to a Ki of 7.4 nM. This Ki is about 2.3-fold higher than that of the compound before.

`CNc1nc(Nc2ccc(C(=O)NC(C)C)cc2OC)ncc1Cl` [Example 53, 4-(5-Chloro-4-methylamino-pyrimidin-2-ylamino)-N-isopropyl-3-methoxy-benzamide] yielded a Ki of 2 nM.

Turning to `CNc1nc(Nc2ccc(C(=O)N3CCC(F)(F)CC3)cc2OC)ncc1Cl` [Example 17, [4-(5-Chloro-4-methylamino-pyrimidin-2-ylamino)-3-methoxy-phenyl]-(4,4-difluoro-piperidin-1-yl)-methanone], the affinity, expressed as Ki, was 3 nM.

`CNc1nc(Nc2cc(OC)c(C(=O)N3CCC(C#N)C3)cc2Cl)ncc1Cl` (stereo not drawn) [Example 171, l-[5-Chloro-4-(5-chloro-4-methylamino-pyrimidin-2-ylamino)-2-methoxy-benzoyl]-pyrrolidine-3-carbonitrile] displayed a Ki of 4.5 nM. This Ki is about 1.5-fold higher than that of the compound before.

As to `CNc1nc(Nc2cc(OC)c(C(=O)NC3(C#N)CC3)cc2Cl)ncc1Cl` [Example 170, 5-Chloro-4-(5-chloro-4-methylamino-pyrimidin-2-ylamino)-N-(l-cyano-cyclopropyl)-2-methoxy-benzamide], the Ki turned out to be 13.9 nM.

`CNc1nc(Nc2ccc(C(=O)N3CCOCC3)cc2C2CC2)ncc1Cl` [Example 193, [4-(5-Chloro-4-methylamino-pyrimidin-2-ylamino)-3-cyclopropyl-phenyl]-morpholin-4-yl-methanone] yielded a Ki of 23.9 nM. Against the preceding compound, the Ki is about 1.7-fold higher.

The experiment is the same for the next values; noted with them: Table 5.
`CCNc1nc(Nc2ccc(C(=O)N3CCOCC3)cc2OC)ncc1C(F)(F)F` [Example 257] showed a Ki of 2 nM.

The experiment is the same for the next values; noted with them: Table 6.
Take `CNc1nc(Nc2ccc(C(=O)N3CCOCC3)cc2OCCF)ncc1C(F)(F)F` [Example 298, [3-(2-Fluoro-ethoxy)-4-(4-methylamino-5-trifluoromethyl-pyrimidin-2-ylamino)-phenyl]-morpholin-4-yl-methanone]: the affinity, expressed as Ki, was 2.4 nM.

On to `CNc1nc(Nc2ccc(C(=O)N(C)CCOC)cc2OC)ncc1C(F)(F)F` [Example 301, 3-Methoxy-N-(2-methoxy-ethyl)-N-methyl-4-(4-methylamino-5-trifluoromethyl-pyrimidin-2-ylamino)-benzamide], for which the Ki came out at 5.1 nM.

`CCNc1nc(Nc2cc(F)c(C(=O)N3CCOCC3)cc2OCC)ncc1C(F)(F)F` [Example 309, [5-Ethoxy-4-(4-ethylamino-5-trifluoromethyl-pyrimidin-2-ylamino)-2-fluoro-phenyl]-morpholin-4-yl-methanone] gave a Ki of 2.1 nM. This Ki is about 2.4-fold lower than that of the compound before.

Consider `CCN(CCOC)C(=O)c1cc(OC)c(Nc2ncc(C(F)(F)F)c(NC)n2)cc1F` [Example 308, N-Ethyl-2-fluoro-5-methoxy-N-(2-methoxy-ethyl)-4-(4-methylamino-5-trifluoromethyl-pyrimidin-2-ylamino)-benzamide], for which affinity was put at a Ki of 3.5 nM.

As for `CNc1nc(Nc2cc(OC)c(C(=O)N3CCOCC3)cc2Cl)ncc1Cl` [Example 295, (5-chloro-4-(5-chloro-4-(methyl-amino)pyrimidin-2-ylamino)-2-methoxy-phenyl)(morpholino) methanone], the affinity, expressed as Ki, was 6 nM. This Ki is about 1.7-fold higher than that of the compound before.

The compound `CNc1nc(Nc2ccc(C(=O)N3CCC(OC)CC3)cc2OC)ncc1C(F)(F)F` [Example 280, [3-Methoxy-4-(4-methylamino-5-trifluoromethyl-pyrimidin-2-ylamino)-phenyl]-(4-methoxy-piperidin-1-yl)-methanone] came in with an inhibitory constant (Ki) of 1.6 nM.

The same experiment, now with this note: Table 7.
`COc1cc(C(=O)N2CCOCC2)ccc1Nc1ncc(C#N)c(OC)n1` [Example 315, 4-Methoxy-2-[2-methoxy-4-(morpholine-4-carbonyl)-phenylamino]-pyrimidine-5-carbonitrile]: the inhibition constant (Ki) stood at 138 nM.

These data come from US8802674B2, “Aminopyrimidine derivatives as LRRK2 modulators” (Genentech, Inc., priority 2011, dated 2014).
